Data taken from US7807703B2, “Substituted aryl ketones” (Bayer CropScience AG, priority 2002, dated 2010).
Where two headings read alike, the source gives them in different places. Values belong to the molecule of their own block, whether it stands above or below them.

Tests used:
[1] = log P determination by reversed-phase HPLC (EEC Directive 79/831 Annex V.A8; acidic or neutral mobile phase); assay type: physicochemical; conditions: for chromatographic logP: reversed-phase C18 HPLC column; for log P (acidic): acetonitrile (marked a) or acidic)
Outline: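 Values marked a) used an acidic eluent of 0.1% aqueous phosphoric acid, those marked b) a neutral eluent of 0.01 molar phosphate buffer, each with acetonitrile rising linearly from 10% to 90%. Column C18 at 43° C, following EEC Directive 79/831 Annex V.A8.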

weeds [2] = assay: Pre-emergence test (Example A), herbicidal activity; assay type: in vivo; conditions: soil sprayed 24 hours after sowing, rated after three weeks
Description: (§1) • Solvent: 5 parts by weight of acetone • Emulsifier: 1 part by weight of alkylaryl polyglycol ether
(§2) To produce a suitable preparation of active compound, 1 part by weight of active compound is mixed with the stated amount of solvent, the stated amount of emulsifier is added and the concentrate is diluted with water to the desired concentration.
Seeds of the test plants are sown in normal soil. After 24 hours, the soil is sprayed with the preparation of active compound such that the particular amount of active compound desired is applied per unit area. The concentration of active compound in the spray liquor is chosen such that the particular amount of active compound desired is applied in 1000 liters of water per hectare.
After three weeks, the degree of damage to the plants is rated in % damage in comparison to the development of the untreated control. The figures denote: • 0%=no effect (like untreated control) • 100%=total destruction

weeds [3] = assay: Post-emergence test (Example B), herbicidal activity; assay type: in vivo; conditions: test plants of 5-15 cm sprayed, rated after three weeks
Description: as §1, §2
Test plants of a height of 5-15 cm are sprayed with the preparation of active compound such that the particular amounts of active compound desired are applied per unit area. The concentration of the spray liquor is chosen such that the particular amounts of active compound desired are applied in 1000 l of water/ha.
After three weeks, the degree of damage to the plants is rated in % damage in comparison to the development of the untreated control.
The figures denote: • 0%=no effect (like untreated control) • 100%=total destruction

[4] = HPLC reversed-phase C18, 43° C., acidic range: 0.1% aqueous phosphoric acid, acetonitrile gradient (marked a))
[5] = HPLC, reversed-phase C 18, 43° C., acidic range: 0.1% aqueous phosphoric acid
[6] = HPLC, reversed-phase C 18, 43° C., mobile phase range not marked, read-out: log P

chromatographic logP ([1]; HPLC reversed-phase C18, 43° C., acidic range: 0.1% aqueous phosphoric acid, acetonitrile gradient (marked a)), read-out: logP): 1.86
SMILES: CCn1ncc(C(=O)c2ccc(Cl)c(OCCNS(=O)(=O)CC)c2Cl)c1O [Example 2, 4-[2,4-dichloro-3-(N-ethylsulphonylaminoethoxy)benzoyl]-1-ethyl-5-hydroxypyrazole]
activity against weeds (degree of damage) (weeds [2]): strong activity
activity against weeds (degree of damage) (weeds [3]): strong activity

SMILES: CCn1ncc(C(=O)c2ccc(Cl)c(OCCNS(=O)(=O)c3ccc(C)cc3)c2Cl)c1O [Example 3]
logP [1, 4]: (I-2) logP = 2.74^a)
activity against weeds (degree of damage) (weeds [3]): strong activity

SMILES: CCS(=O)(=O)NCCOc1c(Cl)ccc(C(=O)C2C(=O)CCCC2=O)c1Cl [Example 4]
logP [1, 4]: logP = 2.36^a)
activity against weeds (degree of damage) (weeds [2]): strong activity
activity against weeds (degree of damage) (weeds [3]): strong activity

SMILES: CS(=O)(=O)NCCOc1c(Cl)ccc(C(=O)C2C(=O)CCCC2=O)c1Cl [Example 5]
logP [1, 4]: logP = 2.16^a)
activity against weeds (degree of damage) (weeds [2]): strong activity
activity against weeds (degree of damage) (weeds [3]): strong activity

SMILES: CCn1ncc(C(=O)c2ccc(Cl)c(OCCNS(C)(=O)=O)c2Cl)c1O [Example 6]
logP [1, 4]: logP = 1.65^a)
activity against weeds (degree of damage) (weeds [2]): strong activity

SMILES: COC(=O)c1ccc(S(C)(=O)=O)c(CN(C)OCC2CCCO2)c1Cl (stereo not drawn) [VIII-64]
log P (acidic) [1, 5]: logPacidic = 2.51

SMILES: COC(=O)c1ccc(S(C)(=O)=O)c(CN(C)OCC2CCCCO2)c1Cl (stereo not drawn) [VIII-65]
log P (acidic) [1, 5]: logPacidic = 2.87

SMILES: COC(=O)c1ccc(Cl)c(CN(C)OC)c1OC [VIII-66]
log P (acidic) [1, 5]: logPacidic = 2.76

SMILES: CCN(Cc1c(Cl)ccc(C(=O)OC)c1OC)OC [VIII-67]
log P (acidic) [1, 5]: logPacidic = 3.43

SMILES: COC(=O)c1ccc(Cl)c(CN(C)S(C)(=O)=O)c1Cl [VIII-68]
log P (acidic) [1, 5]: logPacidic = 2.15

SMILES: COC(=O)c1ccc(S(C)(=O)=O)c(CN(C)S(C)(=O)=O)c1Cl [VIII-69]
log P (acidic) [1, 5]: logPacidic = 1.65

SMILES: CCN(Cc1c(Cl)ccc(C(=O)OC)c1OC)S(C)(=O)=O [VIII-71]
log P (acidic) [1, 5]: logPacidic = 2.38

SMILES: CCN(Cc1c(S(C)(=O)=O)ccc(C(=O)OC)c1Cl)S(C)(=O)=O [VIII-72]
log P (acidic) [1, 5]: logPacidic = 1.88

SMILES: C=CCN(Cc1c(S(C)(=O)=O)ccc(C(=O)OC)c1Cl)S(C)(=O)=O [VIII-73]
log P (acidic) [1, 5]: logPacidic = 2.03

SMILES: CCOC(=O)c1ccc(Cl)c(OCCNC(=O)OC(C)(C)C)c1Cl [ethyl 2,4-dichloro-3-[2-[(t-butoxycarbonyl)amino]ethoxy]benzoate]
chromatographic logP [1, 6]: 3.79

chromatographic logP [1, 6]: 1.08
SMILES: CCOC(=O)c1ccc(Cl)c(OCCN)c1Cl [ethyl 3-(2-aminoethoxy)-2,4-dichlorobenzoate]
